Laboratory results taken from US20220402982A1, “POLYPEPTIDE FRAGMENT D (MP-D) AND USE THEREOF” (SHANGHAI LONGXIN BIOMEDICAL TECHNOLOGY CO., LTD., priority 2021, published 2022).

Legend:
[1] = tested on: DSS-induced IBD in mice; experiment: Colon length in DSS-induced acute IBD mouse model; type: in vivo, male C57BL6 mice; details: 50 μg/kg intragastrically, 7 days pre-administration, then daily together with 2.5 wt % DSS; x±SD; model group 5.3±0.6, blank control 9.4±0.6; in cm (unit assumed)
Experimental: (§1) The administration of a DSS solution with a specified concentration to mice can induce an acute IBD model characterized by diarrhea, hematochezia, ulcer, and granulocyte infiltration. Mice were randomly grouped according to body weights of the mice. 40 healthy male C57BL6 mice were divided into four groups each with 10 mice:
(§2) blank control group: the mice were each intragastrically administered with water every day at a volume of 0.4 mL/20 g;
(§3) model group: the mice were each intragastrically administered with a DSS aqueous solution of a mass fraction of 2.5 wt % consecutively for 7 days, where the DSS aqueous solution was freshly prepared and changed every day; […]
The body weight changes of mice in each group were recorded every day to determine whether the acute IBD mouse model was successfully established.
(§4) A mouse colon between an anus end to an ileocecal end was integrally collected, and a length of the colon was measured; and the colon was dissected along a longitudinal axis, feces therein was rinsed off, and then the colon was stored in 4% […] or frozen at −80° C. […]

[2] = tested on: DSS-induced IBD in mice; experiment: Colonic histopathological evaluation (HE staining, scoring) in DSS-induced acute IBD mouse model; type: in vivo, male C57BL6 mice; details: 50 μg/kg intragastrically, 7 days pre-administration, then daily together with 2.5 wt % DSS; x±SD; model group 7.4±0.6, blank control 0.0±0.0
Experimental: as §1, §2, §3, §4
Experimental data in the above experimental method were expressed as (x±SD), the GraphPad Prism (ver. 8.0, GraphPad Software Inc., San Diego, Calif., USA) was used to plot a chart, the SPSS Program (ver. 25.0, SPSS Inc., Chicago, Ill., USA) was used for statistical test, and one-way ANOVA or independent two-sample t-test were used for significance test when the normality and homogeneity of variances were met. […]

Molecule | colon length [1] | colonic histopathologic score [2]
THTVGSYFQVQNGYVGAFSRALGNNEYAMNS (THTVGSYFXVQNGYVGAFSXALGNXEYAMNS; Sequence is synthesized; (9)..(9) Xaa can be Tyr, Val, Gly, Ser, Gln, or absent; (20)..(20) Xaa can be Ser, Gln, Glu, Tyr, Arg, or absent; (25)..(25) Xaa can be Asn, Thr, Ser, Pro, Leu, or absent) [MP-D] | 8.0±0.9 | 1.3±0.6
THTVGSYFSVQNGYVGAFSQALGNSEYAMNSPLGSLDGRTTMYNLLGVKYLFAREDQLKKQ (peptide, listed as Lactobacillus plantarum, positive control) THTVGSYFSVQNGYVGAFSQALGNSEYAMNSPLGSLDGRTTMYNLLGVKYLFAREDQLKKQ | 7.9±0.5 | 2.4±0.8
